Measurements taken from PubChem BioAssay AID652282 (Vanderbilt Specialized Chemistry Center, 2013).
Calls of active or inactive are those of the source. No rule for the calls is given here.

Tested on: not listed separately
Assay: BMP4 signaling inhibitors, SAR follow-up, reporter cells (AID 652282)
Conditions: BMP4-induced signaling reporter cell assay; at 10 µM (top of the series)

Structure (SMILES)	remaining activity %
c1cc(N2CCNCC2)ccc1-c1cnc2c(-c3cn[nH]c3)cnn2c1	-11.7
c1ccc2c(-c3cnn4cc(-c5ccc(N6CCOCC6)cc5)cnc34)ccnc2c1	-11
COc1ccc(-c2cnc3c(-c4ccnc5ccccc45)cnn3c2)cc1	-16.3

Tested on: BMP4-induced signaling reporter cell assay
Assay: as above
Conditions: not given

Structure (SMILES)	IC50
COc1ccc(-c2cnc3c(-c4cccc5ncccc45)cnn3c2)cc1	152 nM
Clc1cc(-c2cnn3cc(-c4ccc(N5CCOCC5)cc4)cnc23)ccn1	609 nM
COc1ccc(-c2cnc3c(-c4cccc5cccnc45)cnn3c2)cc1	6700 nM (inactive)
Clc1cc(-c2cnn3cc(-c4ccc(N5CCNCC5)cc4)cnc23)ccn1	270 nM
c1ccc2c(-c3cnn4cc(-c5ccc(N6CCOCC6)cc5)cnc34)csc2c1	274 nM
COc1ccc(-c2cnc3c(-c4cncc5ccccc45)cnn3c2)cc1	4900 nM
c1cc(N2CCOCC2)ccc1-c1cnc2c(-c3cn[nH]c3)cnn2c1	172 nM
COc1ccc(-c2cnc3c(-c4ccnc5ncccc45)cnn3c2)cc1	38 nM
c1ccc2c(-c3cnn4cc(-c5ccc(N6CCNCC6)cc5)cnc34)csc2c1	225 nM
COc1ccc(-c2cnc3c(-c4ccnc5ccsc45)cnn3c2)cc1	4500 nM
